In patent US20230017045A1, “PYRIDINE AND PYRIMIDINE CARBOXYLATE HERBICIDES AND METHODS OF USE THEREOF” (Dow AgroSciences LLC, priority 2017, published 2023) one finds pest or weed control data, which are given here for 9 compounds.

The structures appear in SMILES notation. Read-outs that look alike come from different tables or passages of the source.

The assay concerns test plant species. Briefly: Post-emergent herbicidal activity test (greenhouse, foliar spray, visual growth reduction). It is filed as in vivo. Particulars: post-emergence, 336 h, 140 g ai/ha. A digest of the protocol: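 Scoring used a 0 to 100 percent visual scale of growth reduction against solvent-treated controls, read 14 d after spraying. Applications went onto plants at first or second true leaf stage, 187 L/ha, with crop oil concentrate and X-77 surfactant in the carrier. Post-treatment watering was by subirrigation to avoid wash-off.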

[1] abbreviates: ECHCG: barnyardgrass (Echinochloa crus-galli), 14 days after application, read-out: Visual Growth Reduction (%) 14 Days After Application, ECHCG.
Setting [2] is: IPOHE: ivy-leaf morning glory (Ipomoea hederacea), 14 days after application, read-out: Visual Growth Reduction (%) 14 Days After Application, IPOHE.
Where [3] appears, read: KCHSC: kochia (Bassia scoparia), 14 days after application, read-out: Visual Growth Reduction (%) 14 Days After Application, KCHSC.
Setting [4] is: ORYSA: rice (Oryza sativa), 14 days after application, read-out: Visual Growth Reduction (%) 14 Days After Application, ORYSA.
[5] abbreviates: SETFA: giant foxtail (Setaria faberi), 14 days after application, read-out: Visual Growth Reduction (%) 14 Days After Application, SETFA.
Where [6] appears, read: SORVU: grain sorghum (Sorghum vulgare), 14 days after application, read-out: Visual Growth Reduction (%) 14 Days After Application, SORVU.
Where [7] appears, read: STEME: common chickweed (Stellaria media), 14 days after application, read-out: Visual Growth Reduction (%) 14 Days After Application, STEME.
Where [8] appears, read: TRZAS: wheat, spring (Triticum aestivum), 14 days after application, read-out: Visual Growth Reduction (%) 14 Days After Application, TRZAS.
The mark [9] stands for this setting: blackgrass (Alopecurus myosuroides), 14 Days After Application, read-out: Visual Growth Reduction (%) ALOMY.
[10] abbreviates: canada thistle (Cirsium arvense), 14 Days After Application, read-out: Visual Growth Reduction (%) CIRAR.
Setting [11] is: crabgrass (Digitaria sanguinalis), 14 Days After Application, read-out: Visual Growth Reduction (%) DIGSA.
[12] abbreviates: lambsquarters (Chenopodium album), 14 Days After Application, read-out: Visual Growth Reduction (%) CHEAL.
Setting [13] is: redroot pigweed (Amaranthus retroflexus), 14 Days After Application, read-out: Visual Growth Reduction (%) AMARE.
[14] abbreviates: wild oat (Avena fatua), 14 Days After Application, read-out: Visual Growth Reduction (%) AVEFA.
The mark [15] stands for this setting: yellow nutsedge (Cyperus esculentus), 14 Days After Application, read-out: Visual Growth Reduction (%) CYPES.

`COC(=O)c1nc(-c2ccc(Cl)c(C)c2F)ccc1Cl` [F272, Methyl 3-chloro-6-(4-chloro-2-fluoro-3-methylphenyl) picolinate]: the pest or weed control at 140 g/ha under setting [1] lay in the range of 0 to 29%; the pest or weed control at 140 g/ha under setting [2] is 0 to 29%; the pest or weed control at 140 g/ha under setting [3] fell in the range of 0 to 29%; the pest or weed control at 140 g/ha under setting [4] was in the range of 0 to 29%; the pest or weed control at 140 g/ha under setting [5] was in the range of 0 to 29%; the pest or weed control at 140 g/ha under setting [6] was in the range of 0 to 29%. The pest or weed control at 140 g/ha lay in the range of 0 to 29% under setting [7]; 0 to 29% under setting [8]; 0 to 29% under setting [9]; 0 to 29% under setting [10]; 0 to 29% under setting [11]; 0 to 29% under setting [12]. Further, the pest or weed control at 140 g/ha is 0 to 29% under setting [13], 0 to 29% under setting [14] and 0 to 29% under setting [15].
On to `COC(=O)c1nc(-c2ccc(Cl)c(C(F)F)c2F)ccc1Cl` [F273, Methyl 3-chloro-6-(4-chloro-3-(difluoromethyl)-2-fluorophenyl) picolinate], for which the pest or weed control at 140 g/ha was in the range of 0 to 29% under setting [1]; 75 to 84% under setting [2]; 0 to 29% under setting [3]; 0 to 29% under setting [4]; 0 to 29% under setting [5]; 75 to 84% under setting [6]. In addition, the pest or weed control at 140 g/ha runs as follows: under setting [7], 0 to 29%; under setting [8], 0 to 29%; under setting [9], 0 to 29%; under setting [10], 30 to 44%; under setting [11], 60 to 74%; under setting [12], 75 to 84%. Besides, the pest or weed control at 140 g/ha was 0 to 29% under setting [13], 0 to 29% under setting [14] and 0 to 29% under setting [15].
As for `COC(=O)c1nc(-c2ccc(Cl)c(CF)c2F)ccc1Cl` [F274, Methyl 3-chloro-6-(4-chloro-2-fluoro-3-(fluoromethyl)phenyl) picolinate], the pest or weed control at 140 g/ha under setting [1] lay within 0 to 29%; the pest or weed control at 140 g/ha under setting [2] is 0 to 29%; the pest or weed control at 140 g/ha under setting [3] fell in the range of 0 to 29%; the pest or weed control at 140 g/ha under setting [4] lay in the range of 0 to 29%; the pest or weed control at 140 g/ha under setting [5] is 0 to 29%; the pest or weed control at 140 g/ha under setting [6] is 0 to 29%. Also, the pest or weed control at 140 g/ha runs as follows: under setting [7], 0 to 29%; under setting [8], 0 to 29%; under setting [9], 0 to 29%; under setting [10], 60 to 74%; under setting [11], 0 to 29%; under setting [12], 0 to 29%. Also, the pest or weed control at 140 g/ha reads like this: under setting [13], 0 to 29%; under setting [14], 0 to 29%; under setting [15], 0 to 29%.
Regarding `COC(=O)c1nc(-c2ccc(C(F)F)cc2OC)c(F)cc1Cl` [F275, Methyl 3-chloro-6-(4-(difluoromethyl)-2-methoxyphenyl)-5-fluoropicolinate], the pest or weed control at 140 g/ha was in the range of 0 to 29% under setting [1]; 95 to 100% under setting [2]; 85 to 94% under setting [3]; 0 to 29% under setting [4]; 45 to 59% under setting [5]; 45 to 59% under setting [6]. Also, the pest or weed control at 140 g/ha was in the range of 0 to 29% under setting [7]; 0 to 29% under setting [8]; 0 to 29% under setting [9]; 95 to 100% under setting [10]; 0 to 29% under setting [11]; 85 to 94% under setting [12]. Also, the pest or weed control at 140 g/ha lay within 60 to 74% under setting [13], 0 to 29% under setting [14] and 0 to 29% under setting [15].
For `CCOc1c(Cl)ccc(-c2ccc(Cl)c(C(=O)OC)n2)c1Cl` [F276, Methyl 3-chloro-6-(2,4-dichloro-3-ethoxyphenyl) picolinate], the pest or weed control at 140 g/ha by setting is: under setting [1], 0 to 29%; under setting [2], 0 to 29%; under setting [3], 0 to 29%; under setting [4], 0 to 29%; under setting [5], 0 to 29%; under setting [6], 0 to 29%. The pest or weed control at 140 g/ha is, setting by setting: under setting [7], 0 to 29%; under setting [8], 0 to 29%; under setting [9], 0 to 29%; under setting [10], 0 to 29%; under setting [11], 0 to 29%; under setting [12], 0 to 29%. The pest or weed control at 140 g/ha lay in the range of 0 to 29% under setting [13], 0 to 29% under setting [14] and 0 to 29% under setting [15].
Consider `COC(=O)c1nc(-c2cccc(Cl)c2F)ccc1Cl` [F277, Methyl 3-chloro-6-(3-chloro-2-fluorophenyl) picolinate], for which the pest or weed control at 140 g/ha under setting [1] fell in the range of 0 to 29%; the pest or weed control at 140 g/ha under setting [2] was in the range of 0 to 29%; the pest or weed control at 140 g/ha under setting [3] was 0 to 29%; the pest or weed control at 140 g/ha under setting [4] is 0 to 29%; the pest or weed control at 140 g/ha under setting [5] lay within 0 to 29%; the pest or weed control at 140 g/ha under setting [6] was in the range of 0 to 29%. Also, the pest or weed control at 140 g/ha reads like this: under setting [7], 0 to 29%; under setting [8], 0 to 29%; under setting [9], 0 to 29%; under setting [10], 0 to 29%; under setting [11], 0 to 29%; under setting [12], 0 to 29%. Besides, the pest or weed control at 140 g/ha reads like this: under setting [13], 0 to 29%; under setting [14], 0 to 29%; under setting [15], 0 to 29%.
Take `COC(=O)c1nc(-c2cc(F)c(Cl)c(OC)c2)ccc1Cl` [F278, Methyl 3-chloro-6-(4-chloro-3-fluoro-5-methoxyphenyl) picolinate]: the pest or weed control at 140 g/ha under setting [1] fell in the range of 0 to 29%; the pest or weed control at 140 g/ha under setting [2] fell in the range of 0 to 29%; the pest or weed control at 140 g/ha under setting [3] is 0 to 29%; the pest or weed control at 140 g/ha under setting [4] was 0 to 29%; the pest or weed control at 140 g/ha under setting [5] is 0 to 29%; the pest or weed control at 140 g/ha under setting [6] fell in the range of 0 to 29%. The pest or weed control at 140 g/ha by setting is: under setting [7], 0 to 29%; under setting [8], 0 to 29%; under setting [9], 0 to 29%; under setting [10], 0 to 29%; under setting [11], 0 to 29%; under setting [12], 0 to 29%. Moreover, the pest or weed control at 140 g/ha is 0 to 29% under setting [13], 0 to 29% under setting [14] and 0 to 29% under setting [15].
Consider `CCCCOc1c(Cl)ccc(-c2ccc(Cl)c(C(=O)OC)n2)c1F` [F279, Methyl 6-(3-butoxy-4-chloro-2-fluorophenyl)-3-chloropicolinate], for which the pest or weed control at 140 g/ha by setting is: under setting [1], 0 to 29%; under setting [2], 0 to 29%; under setting [3], 0 to 29%; under setting [4], 0 to 29%; under setting [5], 0 to 29%; under setting [6], 0 to 29%. Besides, the pest or weed control at 140 g/ha by setting is: under setting [7], 0 to 29%; under setting [8], 0 to 29%; under setting [9], 0 to 29%; under setting [10], 0 to 29%; under setting [11], 0 to 29%; under setting [12], 0 to 29%. The pest or weed control at 140 g/ha runs as follows: under setting [13], 0 to 29%; under setting [14], 0 to 29%; under setting [15], 0 to 29%.
Regarding `CCCCOC(=O)c1nc(-c2ccc(Cl)c(OC)c2F)ccc1Cl` [F280, Butyl 3-chloro-6-(4-chloro-2-fluoro-3-methoxyphenyl) picolinate], the pest or weed control at 140 g/ha lay within 0 to 29% under setting [1]; 30 to 44% under setting [2]; 60 to 74% under setting [3]; 0 to 29% under setting [4]; 0 to 29% under setting [5]; 0 to 29% under setting [6]. Moreover, the pest or weed control at 140 g/ha under setting [7] is 0 to 29%; the pest or weed control at 140 g/ha under setting [8] was 0 to 29%; the pest or weed control at 140 g/ha under setting [9] lay within 0 to 29%; the pest or weed control at 140 g/ha under setting [10] was in the range of 30 to 44%; the pest or weed control at 140 g/ha under setting [11] fell in the range of 0 to 29%; the pest or weed control at 140 g/ha under setting [12] fell in the range of 85 to 94%. Moreover, the pest or weed control at 140 g/ha reads like this: under setting [13], 30 to 44%; under setting [14], 0 to 29%; under setting [15], 60 to 74%.
